For assay [1], the target named is T1, ALK2 R206H (GST-tagged mutant ALK2) (Homo sapiens, UniProt Q04771, R206H).
T1 construct: purchased Carna Bioscience or ThermoFisher 09-148 or PV6232
T1 sequence (Q04771 21-509 R206H): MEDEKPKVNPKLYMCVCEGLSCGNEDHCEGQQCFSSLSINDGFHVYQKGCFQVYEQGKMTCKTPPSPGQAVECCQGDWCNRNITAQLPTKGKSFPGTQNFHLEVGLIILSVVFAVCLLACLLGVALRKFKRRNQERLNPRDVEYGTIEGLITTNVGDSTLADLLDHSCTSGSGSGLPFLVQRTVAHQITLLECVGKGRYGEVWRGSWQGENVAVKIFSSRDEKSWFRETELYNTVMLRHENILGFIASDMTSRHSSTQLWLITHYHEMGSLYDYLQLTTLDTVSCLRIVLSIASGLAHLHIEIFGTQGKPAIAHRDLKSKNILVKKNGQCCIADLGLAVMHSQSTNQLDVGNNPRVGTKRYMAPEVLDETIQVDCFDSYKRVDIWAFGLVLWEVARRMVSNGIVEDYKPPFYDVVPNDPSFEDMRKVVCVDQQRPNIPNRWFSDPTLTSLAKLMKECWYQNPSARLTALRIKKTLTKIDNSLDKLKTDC
Description: ALK binding assay (LANTHASCREEN TR-FRET competitive binding, displacement of Kinase Tracer 178). As to conditions: ALK2 R206H, LANTHASCREEN TR-FRET competitive binding; read-out: Binding Assay (IC50).

The next assay concerns the target T2, human ALK2 R206H (Homo sapiens, UniProt Q04771, R206H).
T2 construct: expressed in transfected cells; host or cells: HEK293 (ATCC CRL1573), lentivirus transduction, blasticidin selection
T2 sequence (Q04771 21-509 R206H): T1 sequence (Q04771 21-509 R206H)
Kind of assay: Cell-based ALK2-R206H cell activity assay (Smad1-Ser463/Ser465 phosphorylation by AlphaLISA in HEK293-ALK2-R206H cells). The settings on record: read-out: Cell Line (Cell Assay IC50). How it is done: A HEK293 (ATCC, Cat^# CRL1573) based stable cell line expressing human ALK2 R206H cDNA (synthesized by GeneScript, Piscataway, N.J.) and a FLAG tag at the C-terminus was generated by lentivirus transduction and subsequent blasticidin (Life Technologies, Cat^#-A1113902) selection at 10 μg/ml for >2 wks. This cell line was named HEK293-ALK2-R206H.
Test compounds were first diluted to 4 mM or 0.4 mM and then serially diluted 3-fold into 10 different concentrations using DMSO. […] Two μl of the diluted compounds were then dispensed into the HEK293-ALK2-R206H cell-containing wells of the microplates in duplicates. In this way, each compound was tested in 10 doses (3-fold serial dilution with the top concentration being 10 μM or 1 μM). Liquid handling was achieved using a Bravo Automated Liquid Handling Platform (Agilent Technologies). DMSO without compound was used as a negative control. The positive control was 1 μM LDN193189, a known bone morphogenetic protein (BMP inhibitor).
The 10-point dose response curve was used to calculate the IC50 values.
Blank values in the table indicate that the particular compound was not tested in this assay.
(Bead proximity is the source of the signal in Alpha formats.)

A word on the IC50: it is the midpoint of a concentration-inhibition curve. With `CCN1CC(c2ccc(-c3cc4c(N5CCN(C(=O)C6CC6)CC5)ccnn4c3)cc2)C1` [Compound 124], the IC50 in assay [1] was under 10 nM; at human ALK2 R206H, under 100 nM.

Take `O=C(C1CC1)N1CCN(c2ccnn3cc(-c4ccc(C5CCCCN5)cc4)cc23)CC1` (centres unmarked) [Compound 125]: the IC50 in assay [1] was under 10 nM; at human ALK2 R206H it was under 100 nM.

In the case of `O=C(C1CC1)N1CCN(c2ccnn3cc(-c4ccc(N5CCNCC5)cc4)cc23)CC1` [Compound 127, cyclopropyl(4-(6-(4-(piperazin-1-yl)phenyl)pyrrolo[1,2-b]pyridazin-4-yl)piperazin-1-yl)methanone], the half-maximal inhibitory concentration (IC50) is under 10 nM in assay [1] and under 100 nM at human ALK2 R206H.

On to `O=C(C1CC1)N1CCN(c2ccnn3cc(-c4cccc(C5CNCCO5)c4)cc23)CC1` (centres unmarked) [Compound 128], for which the 50% inhibitory concentration (IC50) lay within 10 to 50 nM in assay [1] and 100 to 500 nM on human ALK2 R206H.

Regarding `O=C(C1CC1)N1CCN(c2ccnn3cc(-c4ccc(C5CNCCO5)cc4)cc23)CC1` (centres unmarked) [Compound 129], the IC50 in assay [1] is under 10 nM; on human ALK2 R206H it was under 100 nM.

In the case of `O=C(C1CC1)N1CCN(c2ccnn3cc(-c4ccc([C@H]5CNCCO5)cc4)cc23)CC1` [Compound 130, (S)-cyclopropyl(4-(6-(4-(morpholin-2-yl)phenyl)pyrrolo[1,2-b]pyridazin-4-yl)piperazin-1-yl)methanone], the IC50 in assay [1] was under 10 nM; on human ALK2 R206H, 100 to 500 nM.

As to `O=C(C1CC1)N1CCN(c2ccnn3cc(-c4ccc([C@@H]5CNCCO5)cc4)cc23)CC1` [Compound 131, (R)-cyclopropyl(4-(6-(4-(morpholin-2-yl)phenyl)pyrrolo[1,2-b]pyridazin-4-yl)piperazin-1-yl)methanone], the values for the IC50 (in assay [1]; on human ALK2 R206H) were under 10 nM and 100 to 500 nM, respectively.

`O=C(C1CC1)N1CCN(c2ccnn3cc(-c4ccc(OCC5CCN5)cc4)cc23)CC1` (centres unmarked) [Compound 132]: the IC50 in assay [1] is under 10 nM; on human ALK2 R206H it was under 100 nM.

Turning to `O=C(C1CC1)N1CCN(c2ccnn3cc(-c4ccc(OC5CCNC5)cc4)cc23)CC1` (centres unmarked) [Compound 133], the values for the IC50 (in assay [1]; on human ALK2 R206H) were under 10 nM and under 100 nM, respectively.

On to `O=C(C1CC1)N1CCN(c2ccnn3cc(-c4ccc(OCC5CNC5)cc4)cc23)CC1` [Compound 134], for which the IC50 is under 10 nM in assay [1] and 100 to 500 nM on human ALK2 R206H.

Turning to `O=C(C1CC1)N1CCN(c2ccnn3cc(-c4ccc(N5CCNCC5)nc4)cc23)CC1` [Compound 135], the figures for the IC50 (in assay [1]; at human ALK2 R206H) were 10 to 50 nM and 100 to 500 nM, respectively.

On to `O=C(C1CC1)N1CCN(c2ccnn3cc(-c4ccc(C5CNCC5F)cc4)cc23)CC1` (centres unmarked) [Compound 137], for which the IC50 in assay [1] was under 10 nM; at human ALK2 R206H, under 100 nM.

Consider `CCNC(=O)N1CCN(c2ccnn3cc(-c4ccc(N5CCNCC5)cc4)cc23)CC1` [Compound 140], for which the IC50 in assay [1] is under 10 nM; on human ALK2 R206H it was under 100 nM.

For the molecule `CCNC(=O)N1CCN(c2ccnn3cc(-c4ccc([C@@H]5CNCCO5)cc4)cc23)CC1` [Compound 142], the half-maximal inhibitory concentration (IC50) was under 10 nM in assay [1] and 100 to 500 nM at human ALK2 R206H.

For the molecule `CCOC(=O)N1CCN(c2ccnn3cc(-c4ccc(N5CCNCC5)cc4)cc23)CC1` [Compound 143], the IC50 in assay [1] is under 10 nM; on human ALK2 R206H, under 100 nM.

For `CCOC(=O)N1CCN(c2ccnn3cc(-c4ccc(C5CNCCO5)cc4)cc23)CC1` (centres unmarked) [Compound 144], the IC50 in assay [1] is under 10 nM; on human ALK2 R206H, 100 to 500 nM.

As to `CCOC(=O)N1CCN(c2ccnn3cc(-c4ccc(C5CNCC5F)cc4)cc23)CC1` (centres unmarked) [Compound 145], the IC50 in assay [1] was under 10 nM; at human ALK2 R206H, under 100 nM.

In the case of `O=C(C1CC1)N1CCN(c2ccnn3cc(-c4ccc(N5CC6(CNC6)C5)cc4)cc23)CC1` [Compound 146], the IC50 is under 10 nM in assay [1] and 100 to 500 nM at human ALK2 R206H.

Take `CCN1CCC(c2ccc(-c3cc4c(N5CCN(C(=O)C6CC6)CC5)ccnn4c3)cc2)C1` (centres unmarked) [Compound 147]: the IC50 in assay [1] is under 10 nM; at human ALK2 R206H it was under 100 nM.

On to `CCN1CC[C@@H](c2ccc(-c3cc4c(N5CCN(C(=O)C6CC6)CC5)ccnn4c3)cc2)C1` [Compound 148], for which the values for the IC50 (in assay [1]; on human ALK2 R206H) were under 10 nM and under 100 nM, respectively.

On to `CCN1CC[C@H](c2ccc(-c3cc4c(N5CCN(C(=O)C6CC6)CC5)ccnn4c3)cc2)C1` [Compound 149], for which the concentration for half-maximal inhibition (IC50) in assay [1] is under 10 nM; at human ALK2 R206H it was under 100 nM.

Turning to `CC(C)N1CC(c2ccc(-c3cc4c(N5CCN(C(=O)C6CC6)CC5)ccnn4c3)cc2)C1` [Compound 150, cyclopropyl(4-(6-(4-(1-isopropylazetidin-3-yl)phenyl)pyrrolo[1,2-b]pyridazin-4-yl)piperazin-1-yl)methanone], the IC50 in assay [1] is under 10 nM; on human ALK2 R206H, under 100 nM.

Take `C[C@@H]1CN(c2ccnn3cc(-c4ccc(N5CCNCC5)cc4)cc23)CCN1C(=O)C1CC1` [Compound 152]: the results for the IC50 (in assay [1]; on human ALK2 R206H) were under 10 nM and under 100 nM, respectively.

As for `CN1CCN(c2ccc(-c3cc4c(N5CCN(C(=O)C6CC6)CC5)ccnn4c3)cc2)CC1` [Compound 153], the IC50 in assay [1] was under 10 nM; at human ALK2 R206H it was 100 to 500 nM.

Turning to `O=C(C1CCC1)N1CCN(c2ccnn3cc(-c4ccc(N5CCNCC5)cc4)cc23)CC1` [Compound 154], the IC50 in assay [1] is under 10 nM; at human ALK2 R206H, 100 to 500 nM.

On to `C[C@@H]1CN(c2ccc(-c3cc4c(N5CCN(C(=O)C6CC6)CC5)ccnn4c3)cc2)CCN1` [Compound 155], for which the IC50 in assay [1] is under 10 nM; on human ALK2 R206H, 100 to 500 nM.

For the molecule `C[C@H]1CN(c2ccc(-c3cc4c(N5CCN(C(=O)C6CC6)CC5)ccnn4c3)cc2)CCN1` [Compound 156], the IC50 is under 10 nM in assay [1] and under 100 nM on human ALK2 R206H.

Consider `NC1CCN(c2ccc(-c3cc4c(N5CCN(C(=O)C6CC6)CC5)ccnn4c3)cc2)CC1` [Compound 158], for which the IC50 was under 10 nM in assay [1] and 100 to 500 nM on human ALK2 R206H.

Regarding `O=C(C1CC1)N1CCN(c2ccnn3cc(-c4ccc(OC5CCCNC5)cc4)cc23)CC1` (centres unmarked) [Compound 159], the 50% inhibitory concentration (IC50) in assay [1] was under 10 nM; at human ALK2 R206H, under 100 nM.

In the case of `O=C(C1CC1)N1CCN(c2ccnn3cc(-c4ccc(OC5CCNCC5)cc4)cc23)CC1` [Compound 160], the results for the 50% inhibitory concentration (IC50) (in assay [1]; at human ALK2 R206H) were under 10 nM and 100 to 500 nM, respectively.

As to `CCN1CC(O)(c2ccc(-c3cc4c(N5CCN(C(=O)C6CC6)CC5)ccnn4c3)cc2)C1` [Compound 161], the half-maximal inhibitory concentration (IC50) was under 10 nM in assay [1] and under 100 nM on human ALK2 R206H.

As for `O=C(C1CC1)N1CCN(c2ccnn3cc(-c4ccc(O[C@@H]5CCCNC5)cc4)cc23)CC1` [Compound 162], the 50% inhibitory concentration (IC50) in assay [1] was under 10 nM; at human ALK2 R206H it was under 100 nM.

On to `O=C(C1CC1)N1CCN(c2ccnn3cc(-c4ccc(O[C@H]5CCCNC5)cc4)cc23)CC1` [Compound 163], for which the 50% inhibitory concentration (IC50) in assay [1] was under 10 nM; at human ALK2 R206H, under 100 nM.

Consider `C[C@@H]1CNC[C@H](c2ccc(-c3cc4c(N5CCN(C(=O)C6CC6)CC5)ccnn4c3)cc2)O1` [Compound 164], for which the half-maximal inhibitory concentration (IC50) is under 10 nM in assay [1] and 100 to 500 nM on human ALK2 R206H.

Turning to `CCN1CC(Oc2ccc(-c3cc4c(N5CCN(C(=O)C6CC6)CC5)ccnn4c3)cc2)C1` [Compound 167], the IC50 in assay [1] was under 10 nM; on human ALK2 R206H it was under 100 nM.

`C[C@H]1CNC[C@H](c2ccc(-c3cc4c(N5CCN(C(=O)C6CC6)CC5)ccnn4c3)cc2)O1` [Compound 169]: the IC50 in assay [1] is under 10 nM; on human ALK2 R206H, 100 to 500 nM.

For the molecule `C[C@@H]1CN(c2ccnn3cc(-c4ccc(N5CCNCC5)nc4)cc23)CCN1C(=O)C1CC1` [Compound 170], the half-inhibitory concentration (IC50) was in the range of 10 to 50 nM in assay [1] and 100 to 500 nM on human ALK2 R206H.

Values taken from patent US10233186B2, “Inhibitors of activin receptor-like kinase” (BLUEPRINT MEDICINES CORPORATION, priority 2016, dated 2019).
